The values below come from US20170275270A1, “BENZYL SUBSTITUTED INDAZOLES” (Bayer Pharma Aktiengesellschaft, priority 2014, published 2017).

Where a name gives a salt, the structure may show the parent alone. Read-outs that look alike come from different tables or passages of the source.

Test [1] deals with T1, catalytic domain of human Bub1 (amino acids 704-1085) (Homo sapiens, UniProt O43683).
T1 construct: catalytic domain of human Bub1 (amino acids 704-1085); His6 (N); made in house; host or cells: Hi5 insect cells
Nature of the test: Bub1 kinase assay (TR-FRET). The format is biochemical. Summed up:
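TR-FRET read-out (Eu-anti-mouse IgG/anti-phosphoserine antibody to streptavidin-XL665 on biotinylated peptide) after EDTA stop and 1 h complex formation at 22° C. Kinase reaction ran 60 min at 22° C with 1:3.4 serial dilutions from 2 mM DMSO stocks. IC50 from 4-parameter logistic fit of normalized inhibition.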
On the technique in general: TR-FRET usually uses a lanthanide donor and a delayed reading to cut background.

For another test, the target named is Bub1 (Homo sapiens, UniProt O43683). Nature of the test: Formation-Assay: phosphorylation status of histone 2A by inhibition of kinase activity of Bub1. The settings on record: Biological Assay 4.1: H2A Formation IC50, co-treatment with Nocodazole 1 μg/ml, 16 h. The format is cell-based. Summed up:
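Cells co-treated 16 h with Nocodazole (1 μg/ml) and compound (3 nM–10 μM), then fixed and immunostained for phospho-H2A, read by infrared imaging (800 nm) normalised to cell stain (700 nm). Nocodazole-only set as 100%, untreated cells as 0%.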

In the next test the test system is HeLa. As to the kind of experiment: Proliferation assay (HeLa cell line).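 Note: crystal violet staining of cell number, scaled between a plate stained before dosing (0%) and cells left untreated (100%), compounds tested at 0.001-10 µM, IC50 via 4-parameter fit.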 The settings on record: Homo sapiens, 96 h, read-out: Biological Assay 2: Proliferation assay (HeLa cell line) median IC50.
Test [2] deals with HeLa human cervical tumor cells. Nature of the test: Proliferation assay (HeLa+Paclitaxel).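 Note: compounds at 0.001-10 µM added 4 h after paclitaxel, 92 h exposure, absorbance normalized to zero-point plate (0%) and untreated cells (100%), IC50 from 4-parameter fit.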 The settings on record: read-out: Biological Assay 3: HeLa + Paclitaxel IC50, 3 nM paclitaxel, crystal violet.
The mark [3] stands for this setting: 10 μM ATP, read-out: Biological Assay 1: Bub1 kinase assay median IC50.
Setting [4] is: Biological Assay 1: Bub1 kinase assay median IC50, 10 μM ATP.

Sequence of Bub1 (O43683 whole entry): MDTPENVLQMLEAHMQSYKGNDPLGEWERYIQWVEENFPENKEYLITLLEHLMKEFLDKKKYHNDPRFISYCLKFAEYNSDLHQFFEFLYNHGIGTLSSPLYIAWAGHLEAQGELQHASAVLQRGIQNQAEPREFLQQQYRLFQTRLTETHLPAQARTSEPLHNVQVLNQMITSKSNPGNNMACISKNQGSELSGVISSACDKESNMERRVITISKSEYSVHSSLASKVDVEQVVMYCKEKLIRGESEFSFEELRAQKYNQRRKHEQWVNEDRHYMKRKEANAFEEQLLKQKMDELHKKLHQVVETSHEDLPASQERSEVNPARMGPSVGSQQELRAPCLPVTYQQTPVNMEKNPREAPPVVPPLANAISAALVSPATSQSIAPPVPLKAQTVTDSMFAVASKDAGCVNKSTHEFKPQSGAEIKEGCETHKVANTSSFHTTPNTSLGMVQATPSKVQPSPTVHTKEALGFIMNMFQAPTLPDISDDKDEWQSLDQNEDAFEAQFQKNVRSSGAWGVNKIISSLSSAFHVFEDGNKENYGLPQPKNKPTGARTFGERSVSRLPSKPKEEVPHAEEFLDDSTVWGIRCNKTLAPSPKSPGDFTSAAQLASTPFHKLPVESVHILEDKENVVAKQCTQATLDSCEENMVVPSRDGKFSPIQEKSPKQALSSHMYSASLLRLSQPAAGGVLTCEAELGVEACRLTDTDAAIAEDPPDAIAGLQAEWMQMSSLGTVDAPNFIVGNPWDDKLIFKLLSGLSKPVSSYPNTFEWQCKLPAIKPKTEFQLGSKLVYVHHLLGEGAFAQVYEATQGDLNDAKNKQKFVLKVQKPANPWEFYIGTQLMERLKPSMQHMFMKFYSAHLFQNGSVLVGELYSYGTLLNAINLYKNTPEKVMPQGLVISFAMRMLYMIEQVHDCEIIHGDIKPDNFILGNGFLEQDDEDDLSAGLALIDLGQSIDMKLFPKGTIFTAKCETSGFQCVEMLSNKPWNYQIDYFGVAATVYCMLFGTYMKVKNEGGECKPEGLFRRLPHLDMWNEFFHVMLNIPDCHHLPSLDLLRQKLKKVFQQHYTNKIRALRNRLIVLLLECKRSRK
T1 sequence (O43683 704-1085): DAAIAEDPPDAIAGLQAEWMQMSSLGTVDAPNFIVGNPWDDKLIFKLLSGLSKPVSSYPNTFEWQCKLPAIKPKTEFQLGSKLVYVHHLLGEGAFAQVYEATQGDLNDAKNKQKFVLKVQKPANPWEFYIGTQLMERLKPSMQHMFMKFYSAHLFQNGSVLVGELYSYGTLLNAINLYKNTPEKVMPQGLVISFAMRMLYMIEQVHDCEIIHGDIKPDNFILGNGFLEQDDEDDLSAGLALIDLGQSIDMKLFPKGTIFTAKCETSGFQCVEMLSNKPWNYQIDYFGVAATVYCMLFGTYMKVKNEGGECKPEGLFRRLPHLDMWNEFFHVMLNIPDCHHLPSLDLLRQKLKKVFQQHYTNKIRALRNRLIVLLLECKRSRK

Turning to `CCOc1cc(F)c(Cn2nc(-c3nc4c(c(Nc5ccncc5OC)n3)CCC4)c3ccccc32)c(F)c1` [Example 2-14-4, 2-[1-(4-ethoxy-2,6-difluorobenzyl)-1H-indazol-3-yl]-N-(3-methoxypyridin-4-yl)-6,7-dihydro-5H-cyclopenta[d]pyrimidin-4-amine], the IC50 was 2.9 nM in test [1] (setting [3]), 13 nM on Bub1, 940 nM in the test on HeLa and 120 nM in test [2].
`CCOc1cc(F)c(Cn2nc(-c3nc4c(c(Nc5cc(C)ncc5C)n3)CC(C)(C)CC4)c3ccccc32)c(F)c1` [Example 2-12-68, N-(2,5-dimethylpyridin-4-yl)-2-[1-(4-ethoxy-2,6-difluorobenzyl)-1H-indazol-3-yl]-6,6-dimethyl-5,6,7,8-tetrahydroquinazolin-4-amine]: the IC50 in test [1] (setting [3]) came out at 35 nM; on Bub1 it was 3.8 nM; with HeLa it was 2700 nM; in test [2], 78 nM.
Take `CCOc1cc(F)c(Cn2nc(-c3ncc(CCN)c(Nc4ccnc(C(F)(F)F)c4)n3)c3ccccc32)c(F)c1` [Example 2-9-11, 5-(2-aminoethyl)-2-[1-(4-ethoxy-2,6-difluorobenzyl)-1H-indazol-3-yl]-N-[2-(trifluorometh-yl)pyridin-4-yl]pyrimidin-4-amine, salt with hydrochloric acid]: the IC50 turned out to be 360 nM in test [1] (setting [3]), 2.8 nM on Bub1, 1100 nM in the test with HeLa and 110 nM in test [2].
Regarding `CCOc1cc(F)c(Cn2nc(-c3nc(COC)cc(Nc4ccnc(NC(C)=O)c4)n3)c3ccccc32)c(F)c1` [Example 2-12-20, N-[4-({2-[1-(4-ethoxy-2,6-difluorobenzyl)-1H-indazol-3-yl]-6-(methoxymethyl)pyr-imidin-4-yl}amino)pyridin-2-yl]acetamide], the IC50 in test [1] (setting [4]) was found to be 5.3 nM; on Bub1, 2.9 nM; in the test on HeLa, 2800 nM; in test [2], 330 nM.
As for `CCOc1cc(F)c(Cn2nc(-c3nc4c(c(Nc5ccncn5)n3)CCC4)c3ccccc32)c(F)c1` [Example 2-14-6, 2-[1-(4-ethoxy-2,6-difluorobenzyl)-1H-indazol-3-yl]-N-(pyrimidin-4-yl)-6,7-dihydro-5H-cyclopenta[d]pyrimidin-4-amine], the IC50 was determined as 37 nM in test [1] (setting [3]), 2.7 nM on Bub1, 3600 nM in the test with HeLa and 270 nM in test [2].
`CC(=O)Nc1cc(Nc2nc(-c3nn(Cc4c(F)cc(OCCO)cc4F)c4ccccc34)ncc2C2CCN(CC(F)(F)F)CC2)ccn1` [Example 2-6-13, N-{4-[(2-{1-[2,6-difluoro-4-(2-hydroxyethoxy)benzyl]-1H-indazol-3-yl}-5-[1-(2,2,2-trifluoroethyl)piperidin-4-yl]pyrimidin-4-yl)amino]pyridin-2-yl}acetamide]: the IC50 in test [1] (setting [4]) stood at 53 nM; on Bub1, 8.4 nM; in the test on HeLa, 9700 nM; in test [2] it was 390 nM.
The like results for `OCCOc1cc(F)c(Cn2nc(-c3ncc(C4CCN(CC(F)(F)F)CC4)c(Nc4ccncc4Cl)n3)c3ccccc32)c(F)c1` [Example 2-6-14, 2-{4-[(3-{4-[(3-chloropyridin-4-yl)amino]-5-[1-(2,2,2-trifluoroethyl)piperidin-4-yl]pyrimidin-2-yl}-1H-indazol-1-yl)methyl]-3,5-difluorophenoxy} ethanol] were, in that order, 36 nM, 7.1 nM, 2400 nM and 340 nM.
On to `CCOc1cc(F)c(Cn2nc(-c3ncc(CCNCC(F)(F)F)c(Nc4ccncc4)n3)c3ccccc32)c(F)c1` [Example 2-16-1, 2-[1-(4-ethoxy-2,6-difluorobenzyl)-1H-indazol-3-yl]-N-(pyridin-4-yl)-5-{2-[(2,2,2-trifluoroethyl)amino]ethyl}pyrimidin-4-amine], for which the IC50 amounted to 18 nM in test [1] (setting [4]), 18 nM at Bub1, 3000 nM with HeLa and 200 nM in test [2].
For the molecule `Cc1cc(Nc2nc(-c3nn(Cc4c(F)cc(OCCO)cc4F)c4ccccc34)nc3c2CCC3)c(F)cn1` [Example 2-6-21, 2-{3,5-difluoro-4-[(3-{4-[(5-fluoro-2-methylpyridin-4-yl)amino]-6,7-dihydro-5H-cyclopenta[d]pyrimidin-2-yl}-1H-indazol-1-yl)methyl]phenoxy}ethanol], the IC50 amounted to 11 nM in test [1] (setting [4]), 84 nM at Bub1, 3400 nM with HeLa and 170 nM in test [2].
`CCOc1cc(F)c(Cn2nc(-c3nc4c(c(Nc5ccncc5C)n3)CCN(Cc3ccccc3)C4)c3ccccc32)c(F)c1` [Example 2-12-16, 7-benzyl-2-[1-(4-ethoxy-2,6-difluorobenzyl)-1H-indazol-3-yl]-N-(3-methylpyridin-4-yl)-5,6,7,8-tetrahydropyrido[3,4-d]pyrimidin-4-amine]: the IC50 in test [1] (setting [4]) was found to be 290 nM; on Bub1 it was 57 nM; in the test with HeLa, 1000 nM; in test [2], 130 nM.
